This is an account of results in patent US5227391A, “Method for treatment of neurodegenerative diseases” (R. J. Reynolds Tobacco Company, priority 1992, dated 1993).

For orientation: Ki means a dissociation constant, usually derived from enzyme kinetics or from competition with a known ligand.

The test has as its target high affinity nicotinic receptors. Particulars: read-out: Ki (nM), inhibition of L-[3H]nicotine binding; mouse brain membranes (cerebellum removed), 10 nM L-[3H]nicotine, 2 hr at 4° C.; Ki calculated from IC50 by the method of Cheng et al. On the procedure:
Mice were killed by cervical dislocation. Brains were removed and placed on an ice-cold platform. […] Prior to each centrifugation step, the suspension was incubated at 37° C. for 5 min. to promote hydrolysis of endogenous acetylcholine. The final pellet was overlayered with buffer and stored at -70° C.
The binding of L-[^3 H]nicotine was measured using a 2 hr. incubation at 4° C. Incubations contained about 500 μg of protein and were conducted in 12 mm×75 mm polypropylene test tubes in a final incubation volume of 250 μl. The incubation buffer was Krebs-Ringers HEPES containing 200 mM TRIS buffer, pH 7.5. The binding reaction was terminated by filtration of the protein containing bound ligand onto glass fiber filters (Micro Filtration Systems) that had been soaked in buffer containing 0.5 percent polyethyleneimine. Filtration vacuum was -50 to -100 torr. Each filter was washed five times with 3 ml of ice-cold buffer. The filtration apparatus was cooled to 2° C. before use and was kept cold through the filtration process. […] The inhibition of L-[^3 H]nicotine binding by test compounds was determined by including one of eight different concentrations of the test compound in the incubation.

`CN1CCC[C@@H]1c1cccnc1` [(R)-(+)-nicotine]: the inhibition constant (Ki) is 113 nM.
